Our source for the MIC values is DBAASP.

Assay in all cases: ≥ marks a high value that may be exact or a test limit, other limits are often not marked, values filed in µg/mL are converted to µM
The subject of test [1] is Acinetobacter baumannii ATCC 17978.
For test [2], the system named is Staphylococcus aureus HNCMO 112011.
In test [3] the test system is Escherichia coli ATCC 8739.
The test system of test [4] is Staphylococcus aureus KCTC 1621.
For test [5], the system named is Salmonella typhimurium KCTC 1926.
Test [6] concerns Pseudomonas aeruginosa KCTC 1637.
The subject of test [7] is Enterococcus faecalis KCTC 2011.
Test [8] deals with Staphylococcus epidermidis KCTC 1917.
For test [9], the system named is Bacillus subtilis KCTC 3068.
Test [10] deals with Proteus vulgaris KCTC 2433.
The test system of test [11] is Escherichia coli KCTC 1682.
The subject of test [12] is Escherichia coli KCTC 2223.
Test [13] deals with Micrococcus luteus ATCC 10240.
Test [14] relates to Salmonella typhimurium KCTC 2370.
Test [15] relates to Staphylococcus aureus ATCC 15752.
Test [16] concerns Candida tropicalis IOC 4560.
The subject of test [17] is Serratia marcescens ATCC 4112.
The test system of test [18] is Candida albicans MDM8.
The test system of test [19] is Escherichia coli SBS 363.
Test [20] relates to Bacillus megaterium ATCC 10778.
Test [21] has as its system Bacillus subtilis ATCC 6633.
The test system of test [22] is Staphylococcus aureus ATCC 29213.
Test [23] relates to Pseudomonas aeruginosa ATCC 27853.
In test [24] the test system is Micrococcus luteus A270.
The subject of test [25] is Enterobacter cloacae beta-12.
Test [26] concerns Escherichia coli BL21AI.
Test [27] concerns Micrococcus luteus DSM 1790.
For test [28], the system named is Salmonella enterica subsp. enterica serovar Typhimurium C77-31.
The subject of test [29] is Salmonella enterica subsp. enterica serovar Pullorum C79-13.
The subject of test [30] is Salmonella enterica subsp. enterica CMCC 47020.
Test [31] relates to Escherichia coli UB1005.
Test [32] deals with Staphylococcus aureus ATCC 25923.
Test [33] concerns Cronobacter sakazakii ATCC 29544.
Test [34] relates to Staphylococcus aureus CMCC 26074.
For test [35], the system named is Listeria monocytogenes CMCC 54004.
In test [36] the test system is Salmonella enterica subsp. enterica serovar Typhimurium ATCC 14028.
The subject of test [37] is Salmonella enterica subsp. enterica serovar Typhi CMCC 50071.
Test [38] has as its system Bacillus cereus CMCC 6303.

Structures are written as SMILES. Values after ≈ are worked out from the molar mass of the structure shown.

For the molecule `CC(C)C[C@H](NC(=O)[C@@H]1CCCN1C(=O)[C@H](CCCN=C(N)N)NC(=O)[C@H](CCCN=C(N)N)NC(=O)[C@H](CS)NC(=O)[C@H](CCC(N)=O)NC(=O)[C@@H](N)CCC(N)=O)C(=O)N[C@@H](Cc1ccc(O)cc1)C(=O)N[C@@H](CS)C(=O)N[C@@H](CCCN=C(N)N)C(=O)N[C@@H](CCCN=C(N)N)C(=O)N[C@@H](CCCN=C(N)N)C(=O)N[C@@H](Cc1c[nH]c2ccccc12)C(=O)N[C@@H](CO)C(=O)N[C@@H](Cc1cnc[nH]1)C(=O)N1CCC[C@H]1C(=O)N[C@@H](CCC(N)=O)C(=O)N[C@@H](Cc1ccccc1)C(=O)N[C@@H](CCC(=O)O)C(=O)N[C@@H](CCCCN)C(=O)O` [QQCRRPLYCRRRWSHPQFEK], the MIC in test [1], in test [2] and in [3] was 25 µM (≈ 66.9 µg/mL) in each case.

`CC(C)C[C@H](NC(=O)[C@H](CC(C)C)NC(=O)[C@H](CCCCN)NC(=O)[C@H](CC(C)C)NC(=O)[C@H](CC(C)C)NC(=O)[C@H](CCCCN)NC(=O)[C@H](CCCCN)NC(=O)[C@H](CC(C)C)NC(=O)[C@H](CC(C)C)NC(=O)[C@H](CCCCN)NC(=O)[C@H](CCCCN)NC(=O)[C@H](Cc1c[nH]c2ccccc12)NC(=O)[C@@H](N)CCCCN)C(=O)N[C@@H](CCCCN)C(=O)N[C@@H](CCCCN)C(=O)O` [KWKKLLKKLLKLLKK]: the MIC in [4] was 8 µM (≈ 15.3 µg/mL); in test [5], ≥ 32 µM; in test [6], ≥ 32 µM; in test [7], 16 µM (≈ 30.5 µg/mL); in test [8], 22.6 µM (≈ 43.2 µg/mL); in test [9], 11.3 µM (≈ 21.6 µg/mL). Further, the MIC in [10] is ≥ 32 µM; in [11] it was 22.6 µM (≈ 43.2 µg/mL).

Turning to `CC(C)[C@H](NC(=O)[C@H](CCCCN)NC(=O)[C@@H](N)CCCN=C(N)N)C(=O)N[C@@H](CCCN=C(N)N)C(=O)NCC(=O)N1CCC[C@H]1C(=O)N1CCC[C@H]1C(=O)O` [RKVRGPP], the MIC in test [12], in test [13], in [14] and in test [15] was ≥ 32 µM each time.

Turning to `CC(C)C[C@H](NC(=O)[C@H](C)NC(=O)[C@H](CCCN=C(N)N)NC(=O)[C@H](CC(C)C)NC(=O)[C@@H](N)Cc1ccccc1)C(=O)N[C@@H](Cc1c[nH]c2ccccc12)C(=O)N[C@@H](CC(N)=O)C(=O)N[C@H](C(=O)N[C@@H](C)C(=O)N[C@@H](CCCCN)C(=O)N[C@@H](CO)C(=O)N[C@H](C(=O)N[C@@H](Cc1ccccc1)C(N)=O)C(C)C)C(C)C` [FLRALWNVAKSVF], the minimum inhibitory concentration (MIC) in test [16] was determined as 1.6 µM (≈ 2.48 µg/mL); in [17], 0.4 µM (≈ 0.62 µg/mL); in [18], 3.1 µM (≈ 4.8 µg/mL); in [19], 1.6 µM (≈ 2.48 µg/mL); in [20], 1.6 µM (≈ 2.48 µg/mL); in [21], 0.8 µM (≈ 1.24 µg/mL). For the same molecule, the minimum inhibitory concentration (MIC) in test [22] was 1.6 µM (≈ 2.48 µg/mL); in test [23], 12.5 µM (≈ 19.4 µg/mL); in test [24] it was 1.6 µM (≈ 2.48 µg/mL); in test [25] it was 12.5 µM (≈ 19.4 µg/mL).

As for `CC[C@H](C)[C@H](NC(=O)[C@H](CCCN=C(N)N)NC(=O)[C@H](CCCN=C(N)N)NC(=O)[C@@H]1CCCN1C(=O)[C@@H]1CCCN1C(=O)[C@@H](NC(=O)[C@@H]1CCCN1C(=O)[C@H](CCCN=C(N)N)NC(=O)[C@@H]1CCCN1C(=O)[C@H](CC(C)C)NC(=O)[C@H](Cc1ccc(O)cc1)NC(=O)[C@@H]1CCCN1C(=O)[C@@H]1CCCN1C(=O)[C@H](CCCCN)NC(=O)[C@H](CC(=O)O)NC(=O)[C@@H](N)C(C)C)[C@@H](C)O)C(=O)N[C@@H](Cc1ccc(O)cc1)C(=O)N[C@@H](CC(N)=O)C(=O)O` [VDKPPYLPRPTPPRRIYN], the minimum inhibitory concentration (MIC) in [26] was ≥ 57.4 µM; in test [27], 28.7 µM (≈ 62.5 µg/mL).

In the case of `CC[C@H](C)[C@H](NC(=O)[C@H](CCCN=C(N)N)NC(=O)[C@H](CCCN=C(N)N)NC(=O)[C@H](Cc1c[nH]c2ccccc12)NC(=O)[C@@H](N)CCCN=C(N)N)C(=O)N[C@H](C(=O)N[C@H](C(=O)N[C@H](C(=O)N[C@@H](CCCN=C(N)N)C(=O)N[C@H](C(=O)N[C@@H](CCCN=C(N)N)C(=O)N[C@@H](CCCN=C(N)N)C(N)=O)C(C)C)[C@@H](C)CC)C(C)C)C(C)C` [RWRRIVVIRVRR], the MIC in test [28] was ≥ 32 µM; in [29], ≥ 32 µM; in test [30], ≥ 128 µM; in test [31] it was 16 µM (≈ 26.6 µg/mL); in test [32] it was 256 µM (≈ 426 µg/mL); in test [33], 16 µM (≈ 26.6 µg/mL). Further, the MIC was ≥ 64 µM in test [34]; 2 µM (≈ 3.33 µg/mL) in test [35]; 32 µM (≈ 53.3 µg/mL) in test [36]; 8 µM (≈ 13.3 µg/mL) in test [37]; ≥ 64 µM in [38].
